Reference: publication PMC8286840, “Identifying SARS-CoV-2 antiviral compounds by screening for small molecule inhibitors of Nsp3 papain-like protease” (Biochemical Journal, 2021)
Where a name gives a salt, the structure may show the parent alone. Read-outs that look alike come from different tables or passages of the source.

Experiments:
[1] = molecular target: T1, SARS-CoV-2 PLpro (nsp3 1564–1878) (Severe acute respiratory syndrome coronavirus 2, UniProt P0DTD1); experiment: biochemical; design: FRET-quenched peptide (Pro3) cleavage by PLpro, 10 min pre-incubation, slope over 20 min, normalised to no-compound control; conditions: read-out: % of control remaining
Experimental: The plates were organized with columns 3–22 containing the compounds; the remaining columns were used for reaction controls including substrate only and substrate with enzyme but no compound (Figure 3Aii). The PLpro enzyme was pre-incubated with the compounds for 10 min, and then the reaction was initiated by the addition of substrate. […] We incubated the inhibitors with PLpro before the enzymatic reaction so that the slow-binding inhibitors will not be missed out [21]. […] Fluorescence was read on a Spark multimode microplate reader (Tecan) with an excitation wavelength at 330 nm and emission wavelength at 420 nm. […] An amount of 5 µl of the enzyme was pre-incubated with compounds for 10 min before the addition of 15 µl substrate. Fluorescence was monitored at 2 min for 20 min with 3 min intervals giving a total of seven readings.

[2] = molecular target: T1, SARS-CoV-2 PLpro (nsp3 1564–1878); experiment: biochemical; design: FRET-quenched peptide (Pro3) cleavage by PLpro, 10 min pre-incubation, slope over 20 min, normalised to no-compound control; conditions: read-out: % of control remaining; remark: listed apart in the source

## CC(=O)OCC(=O)[C@@]1(O)CC[C@H]2[C@@H]3CCC4=CC(=O)CC[C@]4(C)[C@@]3(F)[C@@H](O)C[C@@]21C [Fludrocortisone acetate]
[1]; Well no.=5827, high concentration screen
  remaining activity at 3.75 µM: 104%
[2]; Well no.=5827, low concentration screen
  remaining activity at 1.25 µM: 103%

## Nc1ccc(-c2ccc3ncc4ccc(=O)n(-c5cccc(C(F)(F)F)c5)c4c3c2)cn1 [Torin 2]
[1]; Well no.=4787, high concentration screen
  remaining activity at 3.75 µM: 97.9%
[2]; Well no.=4787, low concentration screen
  remaining activity at 1.25 µM: 95.6%

## CNC(=N)NCCC[C@H](N)C(=O)O [NG-Monomethyl-L-arginine acetate]
[1]; Well no.=886, high concentration screen
  remaining activity at 3.75 µM: 103%
[2]; Well no.=886, low concentration screen
  remaining activity at 1.25 µM: 102%

## NC(=O)c1ccc(-c2nc(-c3ccc4c(c3)OCCO4)c(-c3ccccn3)[nH]2)cc1 [Casein Kinase I Inhibitor, D4476]
[1]; Well no.=2372, high concentration screen
  remaining activity at 3.75 µM: 99.2%
[2]; Well no.=2372, low concentration screen
  remaining activity at 1.25 µM: 102%

## Cc1cc(Nc2ncc3cc(-c4c(Cl)cccc4Cl)c(=O)n(C)c3n2)ccc1F [PD-180970]
[1]; Well no.=5604, high concentration screen
  remaining activity at 3.75 µM: 96.4%
[2]; Well no.=5604, low concentration screen
  remaining activity at 1.25 µM: 100%

## COc1ccc2c(c1O)-c1c3c(cc4c1[C@H](C2)N(C)CC4)OCO3 [(+)-Bulbocapnine hydrochloride]
[1]; Well no.=494, high concentration screen
  remaining activity at 3.75 µM: 102%
[2]; Well no.=494, low concentration screen
  remaining activity at 1.25 µM: 102%

## CNC[C@H](O)c1ccc(O)c(O)c1 [Epinephrine bitartrate (Adrenalinium)]
[1]; Well no.=5254, high concentration screen
  remaining activity at 3.75 µM: 101%
[2]; Well no.=5254, low concentration screen
  remaining activity at 1.25 µM: 105%

## Cc1c(-c2ccccc2)oc2c(C(=O)OCCN3CCCCC3)cccc2c1=O [Flavoxate (hydrochloride)]
[1]; Well no.=6803, high concentration screen
  remaining activity at 3.75 µM: 94.8%
[2]; Well no.=6803, low concentration screen
  remaining activity at 1.25 µM: 94.8%

## Cc1ccccc1C(=O)Nc1ccc(C(=O)N2CCCC(O)c3cc(Cl)ccc32)c(C)c1 (stereo not drawn) [Tolvaptan]
[1]; Well no.=7517, high concentration screen
  remaining activity at 3.75 µM: 95.6%
[1]; Well no.=8388, high concentration screen
  remaining activity at 3.75 µM: 97.5%
[2]; Well no.=7517, low concentration screen
  remaining activity at 1.25 µM: 102%
[2]; Well no.=8388, low concentration screen
  remaining activity at 1.25 µM: 97.7%

## COc1nccc(-c2c(-c3ccc(F)cc3)ncn2[C@H]2CC[C@H](O)CC2)n1 [SB 239063]
[1]; Well no.=2667, high concentration screen
  remaining activity at 3.75 µM: 98%
[2]; Well no.=2667, low concentration screen
  remaining activity at 1.25 µM: 93%

## CC(C)(C)C(=O)Oc1ccc(S(=O)(=O)Nc2ccccc2C(=O)NCC(=O)O)cc1 [sodium ({2-[({4-[(2,2-dimethylpropanoyl)oxy]phenyl}sulfonyl)amino]benzoyl}amino)acetate hydrate]
[1]; Well no.=5452, high concentration screen
  remaining activity at 3.75 µM: 101%
[2]; Well no.=5452, low concentration screen
  remaining activity at 1.25 µM: 95.1%

## CO[C@H]1C[C@@H]2CC[C@@H](C)[C@@](O)(O2)C(=O)C(=O)N2CCCC[C@H]2C(=O)O[C@H]([C@H](C)C[C@@H]2CC[C@H](n3ncnn3)[C@H](OC)C2)CC(=O)[C@H](C)/C=C(\C)[C@@H](O)[C@@H](OC)C(=O)[C@H](C)C[C@H](C)/C=C/C=C/C=C/1C [42-(2-Tetrazolyl)rapamycin]
[1]; Well no.=7592, high concentration screen
  remaining activity at 3.75 µM: 91.6%
[2]; Well no.=7592, low concentration screen
  remaining activity at 1.25 µM: 91%

## CC(=O)N[C@H]1CN2CC[C@H](O)[C@@H]2[C@@H](O)[C@@H]1O [6-Acetamido-6-deoxy-castanospermine]
[1]; Well no.=3294, high concentration screen
  remaining activity at 3.75 µM: 99.3%
[2]; Well no.=3294, low concentration screen
  remaining activity at 1.25 µM: 97.4%

## N[C@H]1CONC1=O [L-Cycloserine]
[1]; Well no.=187, high concentration screen
  remaining activity at 3.75 µM: 101%
[1]; Well no.=3185, high concentration screen
  remaining activity at 3.75 µM: 102%
[2]; Well no.=187, low concentration screen
  remaining activity at 1.25 µM: 104%
[2]; Well no.=3185, low concentration screen
  remaining activity at 1.25 µM: 103%

## CCC1=C[C@@H]2CN(C1)Cc1c([nH]c3ccccc13)[C@@](C(=O)OC)(c1cc3c(cc1OC)N(C)[C@H]1[C@@](O)(C(=O)OC)[C@H](OC(C)=O)[C@]4(CC)C=CCN5CC[C@]31[C@@H]54)C2 [Vinorelbine]
[1]; Well no.=2029, high concentration screen
  remaining activity at 3.75 µM: 108%
[1]; Well no.=3763, high concentration screen
  remaining activity at 3.75 µM: 100%
[2]; Well no.=2029, low concentration screen
  remaining activity at 1.25 µM: 104%
[2]; Well no.=3763, low concentration screen
  remaining activity at 1.25 µM: 96.8%

## CC(C(=O)O)c1ccccc1 (stereo not drawn) [2-Phenylpropionic acid]
[1]; Well no.=6837, high concentration screen
  remaining activity at 3.75 µM: 95.3%
[2]; Well no.=6837, low concentration screen
  remaining activity at 1.25 µM: 94.4%

## CC1=C(/C=C/C(C)=C/C=C/C(C)=C/C=C/C=C(C)/C=C/C=C(C)/C=C/C2=C(C)C(=O)[C@@H](O)CC2(C)C)C(C)(C)C[C@H](O)C1=O [Astaxanthin]
[1]; Well no.=296, high concentration screen
  remaining activity at 3.75 µM: 92.4%
[2]; Well no.=296, low concentration screen
  remaining activity at 1.25 µM: 93.3%

## C[C@@H](Nc1ncnc2[nH]c(-c3ccc(O)cc3)cc12)c1ccccc1 [PKI-166]
[1]; Well no.=6037, high concentration screen
  remaining activity at 3.75 µM: 78.3%
[2]; Well no.=6037, low concentration screen
  remaining activity at 1.25 µM: 94.4%

## N=C(N=C(N)N)N1CCOCC1 [Moroxydine.HCl]
[1]; Well no.=1539, high concentration screen
  remaining activity at 3.75 µM: 105%
[2]; Well no.=1539, low concentration screen
  remaining activity at 1.25 µM: 104%

## OCCn1cc(-c2ccc3c(c2)CC/C3=N\O)c(-c2ccncc2)n1 [GDC-0879]
[1]; Well no.=5043, high concentration screen
  remaining activity at 3.75 µM: 104%
[2]; Well no.=5043, low concentration screen
  remaining activity at 1.25 µM: 104%

## c1c2c(cc3c1OCO3)-c1cc3ccc4c(c3c[n+]1CC2)OCO4 [Coptisine (chloride)]
[1]; Well no.=8071, high concentration screen
  remaining activity at 3.75 µM: 101%
[2]; Well no.=8071, low concentration screen
  remaining activity at 1.25 µM: 106%

## COc1cc2c(cc1OC)-c1cc3ccc4c(c3c[n+]1CC2)OCO4 [Epiberberine (chloride)]
[1]; Well no.=8339, high concentration screen
  remaining activity at 3.75 µM: 91.9%
[2]; Well no.=8339, low concentration screen
  remaining activity at 1.25 µM: 91.9%

## Cn1c(SCC(=O)N2CCC[C@H]2C(=O)Nc2ccccc2-c2ccccc2)nc2ccccc21 [TCS 1102]
[1]; Well no.=8429, high concentration screen
  remaining activity at 3.75 µM: 98.6%
[2]; Well no.=8429, low concentration screen
  remaining activity at 1.25 µM: 98.6%

## CN(N=O)c1ccc(O)c(O)c1 [Me-3,4-dephostatin]
[1]; Well no.=1131, high concentration screen
  remaining activity at 3.75 µM: 91.3%
[2]; Well no.=1131, low concentration screen
  remaining activity at 1.25 µM: 95.2%

## Cn1cnc2c(NCc3ccccc3)nc(NCCO)nc21 [Olomoucine]
[1]; Well no.=800, high concentration screen
  remaining activity at 3.75 µM: 98.3%
[2]; Well no.=800, low concentration screen
  remaining activity at 1.25 µM: 96.5%

## CC[n+]1c(/C=C/N(C)c2ccccc2)n(-c2ccccc2)c2ccc(-c3nc4ccccc4s3)cc21 [Akt Inhibitor IV]
[1]; Well no.=2311, high concentration screen
  remaining activity at 3.75 µM: 101%
[2]; Well no.=2311, low concentration screen
  remaining activity at 1.25 µM: 102%

## CN(C)C(=O)Oc1ccc[n+](C)c1 [Pyridostigmine bromide]
[1]; Well no.=1499, high concentration screen
  remaining activity at 3.75 µM: 91.4%
[2]; Well no.=1499, low concentration screen
  remaining activity at 1.25 µM: 89.1%

## CCCCCCCCCCCCCC/C=C\CCCC(=O)O [5(Z)-Eicosenoic acid]
[1]; Well no.=4408, high concentration screen
  remaining activity at 3.75 µM: 92.5%
[2]; Well no.=4408, low concentration screen
  remaining activity at 1.25 µM: 101%

## C/C(=C/C=C/[C@@H](C)C(=O)O)[C@H]1CN[C@H](C(=O)O)[C@H]1CC(=O)O [Domoic acid]
[1]
  remaining activity at 3.75 µM: 102%
[2]
  remaining activity at 1.25 µM: 99.4%

## C=CC(=O)N1C/C(=C\c2ccc([N+](=O)[O-])cc2)C(=O)/C(=C/c2ccc([N+](=O)[O-])cc2)C1 [1-acryloyl-3,5-bis((E)-4-nitrobenzylidene)piperidin-4-one]
[1]; Well no.=6015, high concentration screen
  remaining activity at 3.75 µM: 99.9%
[2]; Well no.=6015, low concentration screen
  remaining activity at 1.25 µM: 103%

## CC(=O)C(=O)O [Pyruvic acid]
[1]; Well no.=6683, high concentration screen
  remaining activity at 3.75 µM: 94.5%
[2]; Well no.=6683, low concentration screen
  remaining activity at 1.25 µM: 92.9%

## Nc1nc2c(ncn2[C@@H]2O[C@@H]3COP(=O)(O)O[C@H]4[C@@H](O)[C@H](n5cnc6c(=O)[nH]c(N)nc65)O[C@@H]4COP(=O)(O)O[C@H]3[C@H]2O)c(=O)[nH]1 [Cyclic-di-GMP]
[1]; Well no.=7774, high concentration screen
  remaining activity at 3.75 µM: 102%
[1]; Well no.=8405, high concentration screen
  remaining activity at 3.75 µM: 100%
[2]; Well no.=7774, low concentration screen
  remaining activity at 1.25 µM: 103%
[2]; Well no.=8405, low concentration screen
  remaining activity at 1.25 µM: 101%
